In patent US5843399A, “DTPA monoamides for MRI” (Schering Aktiengesellschaft, priority 1990, dated 1998):

Assays:
human serum albumin = assay: Association with human serum albumin in aqueous solution; assay type: binding
stomach = conditions: i.v., 0.1 mmol of Gd/kg, 60 minutes after administration (image no. 2)
Description: (§1) A cell suspension of the Brown-Pearce tumor was injected in the liver in a test animal (rat, strain lew/mol, female, 155 g) two weeks before the test. In the method used, about 2 weeks were required until the tumor had reached the size of 0.5-1 cm^3 desired for the test.
(§2) For the test, the animal was anesthetized (Rompun+Ketavet) and then a catheter was placed in the caudal vein for the administration of the contrast medium.
The imaging took place in an MRI experimental device of the General Electric company (field strength 2 teslas). The first image was made without contrast media with a T1 -weighted spin echo sequence (TR=400 msec, TE=20 msec, layer thickness 3 mm). […] Then, the administration of the contrast medium [gadolinium complex of 3,6-bis(carboxymethyl)-9-(10-carboxydecylcarbamoylmethyl)-3,6,9-triazaundecanedioic acid, Example 1b)] took place through the vein catheter with a dose of 0.1 mmol of Gd/kg (concentration of the solution of 0.05 mmol/ml in 0.9% NaCl, i.e. a clinically usual dose, e.g., in the case of the commercial preparation Magnevist®). […] 2 was taken 60 minutes after the administration of the contrast medium under conditions which were otherwise the same as image no.

liver = conditions: p.o., 0.5 mmol of Gd/kg
Description: In another animal (rat, strain Lew/mol, female, 200 g), the same contrast medium was administered orally with a p.o. sample in a dose of 0.5 mmol of Gd/kg (concentration of the solution 0.033 mmol of Gd/ml, in 0.9% NaCl). The animal was anesthetized 30 minutes after the administration and examined under the same conditions as described in the first case.

[1] = test system: liver / Brown-Pearce tumor; assay: In vivo NMR diagnosis, intravenous, liver with Brown-Pearce tumor; design: species or system rat; conditions: i.v., 0.1 mmol of Gd/kg, 60 minutes after administration
Description: as §1, §2
The imaging took place in an MRI experimental device of the General Electric company (field strength 2 teslas). The first image was made without contrast media with a T1 -weighted spin echo sequence (TR=400 msec, TE=20 msec, layer thickness 3 mm). […] 2 was taken 60 minutes after the administration of the contrast medium under conditions which were otherwise the same as image no.

Structure (SMILES) | association with human serum albumin (human serum albumin) | enhancement of the stomach (stomach) | signal in the liver, 45 minutes (liver; 45 minutes after administration (image 3)) | enhancement in the liver, 180 minutes (liver; 180 minutes after administration (image 4)) | concentration of the contrast medium in liver and tumor [1] | appearance of the liver parenchyma in MRI image ([1]; 2 teslas, T1-weighted spin echo) | appearance of the tumor in MRI image ([1]; Brown-Pearce tumor in liver)
CCCCCCC(CCCCCCCCCCC(=O)O)NC(=O)CN(CCN(CCN(CC(=O)O)CC(=O)O)CC(=O)O)CC(=O)O.[Gd] (stereo not shown) [Example 4b, Gadolinium complex of 3,6-bis(carboxymethyl)-9-(11-carboxy-1-n-hexyl-undecylcarbamoylmethyl)-3,6,9-triazaundecanedioic acid] | forms associates in aqueous solution with human serum albumin |  |  |  |  |  | 
O=C(O)CCCCCCCCCCNC(=O)CN(CCN(CCN(CC(=O)O)CC(=O)O)CC(=O)O)CC(=O)O.[Gd] [Example 1b, Gadolinium complex of 3,6-bis(carboxymethyl)-9-(10-carboxydecylcarbamoylmethyl)-3,6,9-triazaundecanedioic acid] |  | very strong enhancement of the stomach | a slight increase in the signal in the liver | A marked enhancement in the liver | concentrated in the liver to a great extent, but, not in the tumor | very bright | considerably darker in comparison with the surrounding liver tissue
